Values after ≈ are worked out from the molar mass of the structure shown.
Key:
Assay type in all cases: functional
HEp-2 [1] = experiment: In vitro inhibition of cytopathogenicity induced by HF strain of Herpes Simplex Virus (HSV-1) replicating in human epidermoid carcinoma no.2 (H.Ep-2) cells
[2] = Cytotoxicity to cancer cells (KB cells) in culture was determined and the effective dose that causes 50 % cytotoxicity was reported.; details: Homo sapiens, Cancer cell lines; read-out: ED50 (the source's name)
Mus musculus [3] = experiment: In vivo efficacy against L1210 leukemic cells, inoculated intraperitoneally in mice at schedule - q.d. 1-9. Dose 100 mg/kg; details: route intraperitoneal
HEp-2 [4] = experiment: In vitro inhibition of cytopathogenicity induced by Lederle Chorioallantoic strain of vaccinia virus replicating in human epidermoid carcinoma
Mus musculus [5] = experiment: In vivo efficacy against L1210 leukemic cells, inoculated intraperitoneally in mice at schedule - q.d. 1-9. Dose 100 mg/kg*-toxic; details: route intraperitoneal
Mus musculus [6] = experiment: In vivo efficacy against L1210 leukemic cells, inoculated intraperitoneally in mice at schedule - q.d. 1-9. Dose 200 mg/kg.*-toxic; details: route intraperitoneal
Mus musculus [7] = experiment: In vivo efficacy against L1210 leukemic cells, inoculated intraperitoneally in mice at schedule - q.d. 1-9. Dose 25 mg/kg; details: route intraperitoneal
Mus musculus [8] = experiment: In vivo efficacy against L1210 leukemic cells, inoculated intraperitoneally in mice at schedule - q.d. 1-9. Dose 50 mg/kg; details: route intraperitoneal
Mus musculus [9] = experiment: In vivo efficacy against L1210 leukemic cells, inoculated intraperitoneally in mice at schedule - day 1. Dose 400 mg/kg; details: route intraperitoneal
HEp-2 [10] = experiment: In vitro inhibition of cytopathogenicity induced by Lederle Chorioallantoic strain of vaccinia virus replicating in human epidermoid carcinoma no.2 (H.Ep-2) cells
Mus musculus [11] = experiment: In vivo efficacy against L1210 leukemic cells, inoculated intraperitoneally in mice at schedule - q.d. 1-9. Dose 400 mg/kg.; details: route intraperitoneal
Mus musculus [12] = experiment: In vivo efficacy against L1210 leukemic cells, inoculated intraperitoneally in mice at schedule - q.d. 1 Dose 150 mg/kg.*-Diiference in weight change(T-C)by day 5 was -5.6g at 150 mg/kg &[…] at 75 mg/kg
Mus musculus [13] = experiment: In vivo efficacy against L1210 leukemic cells, inoculated intraperitoneally in mice at schedule - q.d. 1,5,9. Dose 19 mg/kg; details: route intraperitoneal
Mus musculus [14] = experiment: In vivo efficacy against L1210 leukemic cells, inoculated intraperitoneally in mice at schedule - q.d. 1,5,9. Dose 38 mg/kg; details: route intraperitoneal
Mus musculus [15] = experiment: In vivo efficacy against L1210 leukemic cells, inoculated intraperitoneally in mice at schedule - q.d. 1,5,9. Dose 75 mg/kg*-Diiference in weight change(T-C)by day 5 was -5.6g at 150 mg/kg &[…] at 75 mg/kg
Mus musculus [16] = experiment: In vivo efficacy against L1210 leukemic cells, inoculated intraperitoneally in mice at schedule - q.d. 1-9. Dose 19 mg/kg*-toxic; details: route intraperitoneal
Mus musculus [17] = experiment: In vivo efficacy against L1210 leukemic cells, inoculated intraperitoneally in mice at schedule - q.d. 1-9. Dose 38 mg/kg*-toxic; details: route intraperitoneal
Mus musculus [18] = experiment: In vivo efficacy against L1210 leukemic cells, inoculated intraperitoneally in mice at schedule - q.d. 1-9. Dose 9 mg/kg; details: route intraperitoneal
Mus musculus [19] = experiment: In vivo efficacy against L1210 leukemic cells, inoculated intraperitoneally in mice at schedule - q.d. 1. Dose 75 mg/kg*-Diiference in weight change(T-C)by day 5 was -5.6g at 150 mg/kg &[…] at 75 mg/kg

Row | Structure (SMILES) | Virus rating (HEp-2 [1]) | EC50 [2] | MIC (HEp-2 [1]) | T/C (Mus musculus [9]) | other results
1 | CSc1nc(N)nc2c1nnn2C1CC(CO)C(O)C1O (stereo not given) | 0 VR | > 100 µg/mL |  |  | T/C (Mus musculus [3]): 94%
2 | Nc1nc(N)c2ncn(C3CC(CO)C(O)C3O)c2n1 (stereo not given) | 4.6 VR | 19 µg/mL (≈ 67.8 µM) | 0.3 µg/mL (≈ 1.07 µM) |  | MIC (HEp-2 [4]): 2.3 µg/mL (≈ 8.21 µM); Virus rating (HEp-2 [4]): 3.8 VR; T/C (Mus musculus [5]): 70%; T/C (Mus musculus [6]): 67%; T/C (Mus musculus [7]): 102%; T/C (Mus musculus [8]): 89%
3 | Nc1nc(Cl)c2nnn(C3CC(CO)C(O)C3O)c2n1 (stereo not given) | 0.9 VR | 8 µg/mL (≈ 26.6 µM) | 81 µg/mL (≈ 269 µM) | 111% | Virus rating (HEp-2 [4]): 0.6 VR
4 | Nc1nc(Cl)c2ncn(C3CC(CO)C(O)C3O)c2n1 (stereo not given) | 1.7 VR | > 100 µg/mL | 10 µg/mL (≈ 33.4 µM) | 104% | MIC (HEp-2 [10]): 20 µg/mL (≈ 66.7 µM); Virus rating (HEp-2 [10]): 1.2 VR; T/C (Mus musculus [5]): 85%; T/C (Mus musculus [6]): 67%; T/C (Mus musculus [8]): 101%
5 | Nc1nc(N)c2nnn(C3CC(CO)C(O)C3O)c2n1 (stereo not given) | 1.4 VR | > 100 µg/mL | 100 µg/mL (≈ 356 µM) | 97% | 
6 | Nc1nc(O)c2nnn(C3CC(CO)C(O)C3O)c2n1 (stereo not given) | 0 VR | > 100 µg/mL |  | 109% | 
7 | CNc1nc(N)nc2c1ncn2C1CC(CO)C(O)C1O (stereo not given) | 1.3 VR | 18 µg/mL (≈ 61.2 µM) | 320 µg/mL (≈ 1090 µM) |  | 
8 | Nc1nc(S)c2ncn(C3CC(CO)C(O)C3O)c2n1 (stereo not given) | 0 VR | 50 µg/mL (≈ 168 µM) |  |  | T/C (Mus musculus [11]): 99%
9 | CSc1nc(N)nc2c1ncn2C1CC(CO)C(O)C1O (stereo not given) | 0.1 VR | > 100 µg/mL |  |  | T/C (Mus musculus [3]): 108%
10 | Nc1nc(O)c2ncn(C3CC(CO)C(O)C3O)c2n1 (stereo not given) | 0 VR | > 100 µg/mL |  |  | Virus rating (HEp-2 [4]): 0 VR; T/C (Mus musculus [12]): 75%; T/C (Mus musculus [13]): 94%; T/C (Mus musculus [14]): 92%; T/C (Mus musculus [15]): 70%; T/C (Mus musculus [16]): 83%; T/C (Mus musculus [17]): 71%; T/C (Mus musculus [18]): 101%; T/C (Mus musculus [19]): 88%
11 | Nc1ncnc2c1ncn2[C@@H]1O[C@H](CO)[C@@H](O)[C@@H]1O [VIDARABINE] | 2.2 VR |  | 10 µg/mL (≈ 37.4 µM) |  | 

Reference: ChEMBL document CHEMBL1122656, “Synthesis and antiviral evaluation of carbocyclic analogues of ribofuranosides of 2-amino-6-substituted-purines and of 2-amino-6-substituted-8-azapurines” (1984)
